Earlier results, collected in patent US20090227666A1, “Enhancing Disease Resistance In An Animal” (Hill's Pet Nutrition, Inc., priority 2007, published 2009).

System: CD8+ T cell population
Conditions: moderate (101 mg/kg of food) or high (447 mg/kg of food) versus low-normal (17 mg/kg of food)

**Q.** For `CC(=O)Oc1c(C)c(C)c2c(c1C)CCC(C)(CCC[C@H](C)CCC[C@H](C)CCCC(C)C)O2` (stereo partly drawn) [α-tocopheryl acetate], which “percentages of CD8+ cells” value is on record?
**A.** increased percentages of CD8+ cells
